As a reminder, the DC50 is the concentration giving 50% degradation. Usually Dmax stands for the largest share of the target that was removed.

Data on seven compounds can be found in US20230265116A1, “DEGRADATION OF (EGFR) BY CONJUGATION OF EGFR INHIBITORS WITH E3 LIGASE LIGAND AND METHODS OF USE” (BEIGENE, LTD., priority 2020, published 2023).

Structures are written as SMILES. A value given as a limit tells only on which side of the number the result lay.

What all share (type): cell-based
One assay addresses T1, EGFR WT (BaF3 WT cells) (Homo sapiens, UniProt P00533).
T1 construct: expressed in transfected cells; host or cells: BaF3
In words: EGFR degradation HTRF assay, BaF3 WT cells. The note with it: BaF3 WT, 16h treatment; for Dmax: maximum percentage of degradation, read-out: WT Dmax (%). The method, then:
BaF3 WT(wild type), BaF3-LTC(L858R/T790M/C797S) and BaF3-DTC(Del19/T790M/C797S) cells are treated with compounds diluted in 0.2% DMSO cell culture medium and incubate for 16h, 37° C., 5% CO2, H1975-#36, H1975-#28, H1975-#23 and HCC827 cells are treated with compounds diluted in 0.2% DMSO cell culture medium on day 2, incubate for 16h, 37° C., 5% CO2.the final concentriation of compounds in all assay is start with 10 uM, 5-fold dilution, total 8 doses were included.
After 16h treatment, add HTRF lysis buffer to each well; seal the plate and incubate 1 hour at room temperature on a plate shaker; Once the cells are lysed, 16 μL of cell lysate are transferred to a PE 384-well HTRF detection plate; 4 μL of pre-mixed HTRF antibodies are added to each well; Cover the plate with a plate sealer, spin 1000 rpm for 1 min, Incubate overnight at room temperature; Read on BMG PheraStar with HTRF protocol (337 nm-665 nm-620 nm).
The inhibition (degradation) percentage of the compound was calculated by the following equation: Inhibition percentage of Compound=100-100×(Signal-low control)/(High control-low control), wherein signal=each test compound group
High control=Cell group with added DMSO and without compound, indicating microplate readings without EGFR degradation;
Dmax is the maximum percentage of inhibition (degradation).
The IC50 (DC50) value of a compound can be obtained by fitting the following equation
Y=Bottom+(TOP−Bottom)/(1+((IC50/X)^hillslope))
Wherein, X and Y are known values, and IC50, Hillslope, Top and Bottom are the parameters obtained by fitting with software. Y is the inhibition percentage (calculated from the equation), X is the concentration of the compound; IC50 is the concentration of the compound when the 50% inhibition is reached. The smaller the IC50 value is, the stronger the inhibitory ability of the compound is. Vice versa, the higher the IC50 value is, the weaker the inhibitory ability of the compound is; Hillslope represents the slope of the fitted curve, generally around 1*; Bottom represents the minimum value of the curve obtained by data fitting, which is generally 0%±20%; Top represents the maximum value of the curve obtained by data fitting, which is generally 100%±20%. The experimental data were fitted by calculating and analyzing with Dotmatics data analysis software.
On the technique in general: TR-FRET usually uses a lanthanide donor and a delayed reading to cut background.

The test system of assay [1] is EGFR Del19/T790M/C797S (BaF3-DTC cells). In words: EGFR degradation HTRF assay, BaF3-DTC cells. To be noted: 16h treatment; for DTC Dmax (%): maximum percentage of degradation; for DC50: read-out: DTC DC50. In short, it runs like this: (§1)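 Cells treated 16 h at 37 °C, 5% CO2 in medium with 0.2% DMSO; top final concentration 10 uM, 5-fold dilution, 8 doses. Lysates read by HTRF (665/620 nm); degradation % versus DMSO high control, DC50 from four-parameter fit, Dmax as maximal degradation.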

The target of assay [2] is T2, EGFR L858R/T790M/C797S (BaF3-LTC cells) (Homo sapiens, UniProt P00533, C797S/L858R/T790M).
T2 construct: expressed in transfected cells; host or cells: BaF3
T2 sequence (P00533 25-1210 T790M/C797S/L858R): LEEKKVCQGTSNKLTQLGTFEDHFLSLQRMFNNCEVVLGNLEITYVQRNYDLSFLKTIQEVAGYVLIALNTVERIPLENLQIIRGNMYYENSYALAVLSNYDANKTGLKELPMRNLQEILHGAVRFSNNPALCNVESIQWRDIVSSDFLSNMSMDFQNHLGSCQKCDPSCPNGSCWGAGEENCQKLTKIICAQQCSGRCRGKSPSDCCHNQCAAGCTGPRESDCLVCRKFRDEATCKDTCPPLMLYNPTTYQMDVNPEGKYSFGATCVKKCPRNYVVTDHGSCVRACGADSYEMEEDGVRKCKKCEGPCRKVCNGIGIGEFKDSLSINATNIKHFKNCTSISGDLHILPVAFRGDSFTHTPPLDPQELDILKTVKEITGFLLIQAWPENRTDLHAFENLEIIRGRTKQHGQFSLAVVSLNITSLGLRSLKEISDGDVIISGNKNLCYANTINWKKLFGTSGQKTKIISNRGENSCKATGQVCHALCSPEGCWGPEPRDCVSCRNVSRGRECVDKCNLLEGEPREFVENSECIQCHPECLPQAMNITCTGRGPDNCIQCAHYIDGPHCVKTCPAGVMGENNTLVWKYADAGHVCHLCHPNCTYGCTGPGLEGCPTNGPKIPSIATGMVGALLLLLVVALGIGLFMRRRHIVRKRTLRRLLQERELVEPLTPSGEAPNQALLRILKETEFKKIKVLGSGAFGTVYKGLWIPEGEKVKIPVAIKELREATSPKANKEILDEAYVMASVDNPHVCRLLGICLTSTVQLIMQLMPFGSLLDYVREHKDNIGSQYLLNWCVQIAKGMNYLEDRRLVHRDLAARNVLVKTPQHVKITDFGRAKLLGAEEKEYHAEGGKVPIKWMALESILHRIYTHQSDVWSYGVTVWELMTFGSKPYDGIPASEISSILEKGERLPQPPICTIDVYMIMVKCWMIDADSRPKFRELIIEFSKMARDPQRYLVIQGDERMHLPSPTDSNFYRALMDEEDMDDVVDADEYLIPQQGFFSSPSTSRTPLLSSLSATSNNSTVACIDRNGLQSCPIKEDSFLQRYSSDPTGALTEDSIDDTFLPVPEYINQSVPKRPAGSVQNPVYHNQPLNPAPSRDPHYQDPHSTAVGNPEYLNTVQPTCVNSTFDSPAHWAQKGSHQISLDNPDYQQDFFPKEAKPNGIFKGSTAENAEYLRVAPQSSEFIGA
Briefly: EGFR degradation HTRF assay, BaF3-LTC cells. The note with it: BaF3-LTC, 16h treatment; for Dmax: maximum percentage of degradation, read-out: LTC Dmax (%); for DC50: read-out: LTC DC50. In short, it runs like this:
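EGFR remaining after a 16 h, 37 °C exposure (8 doses, 5-fold steps from 10 uM final, 0.2% DMSO) was quantified by HTRF antibodies in cell lysate. Percent inhibition relative to DMSO control was fitted by four-parameter logistic to give DC50; Dmax denotes maximal degradation.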

In assay [3] the target is T3, EGFR L858R/T790M (H1975-clone #36, homozygous) (Homo sapiens, UniProt P00533, L858R/T790M).
T3 construct: designed to specifically target WT EGFR but preserve the L858R/T790M copy; host or cells: H1975-clone #36
T3 sequence (P00533 25-1210 T790M/L858R): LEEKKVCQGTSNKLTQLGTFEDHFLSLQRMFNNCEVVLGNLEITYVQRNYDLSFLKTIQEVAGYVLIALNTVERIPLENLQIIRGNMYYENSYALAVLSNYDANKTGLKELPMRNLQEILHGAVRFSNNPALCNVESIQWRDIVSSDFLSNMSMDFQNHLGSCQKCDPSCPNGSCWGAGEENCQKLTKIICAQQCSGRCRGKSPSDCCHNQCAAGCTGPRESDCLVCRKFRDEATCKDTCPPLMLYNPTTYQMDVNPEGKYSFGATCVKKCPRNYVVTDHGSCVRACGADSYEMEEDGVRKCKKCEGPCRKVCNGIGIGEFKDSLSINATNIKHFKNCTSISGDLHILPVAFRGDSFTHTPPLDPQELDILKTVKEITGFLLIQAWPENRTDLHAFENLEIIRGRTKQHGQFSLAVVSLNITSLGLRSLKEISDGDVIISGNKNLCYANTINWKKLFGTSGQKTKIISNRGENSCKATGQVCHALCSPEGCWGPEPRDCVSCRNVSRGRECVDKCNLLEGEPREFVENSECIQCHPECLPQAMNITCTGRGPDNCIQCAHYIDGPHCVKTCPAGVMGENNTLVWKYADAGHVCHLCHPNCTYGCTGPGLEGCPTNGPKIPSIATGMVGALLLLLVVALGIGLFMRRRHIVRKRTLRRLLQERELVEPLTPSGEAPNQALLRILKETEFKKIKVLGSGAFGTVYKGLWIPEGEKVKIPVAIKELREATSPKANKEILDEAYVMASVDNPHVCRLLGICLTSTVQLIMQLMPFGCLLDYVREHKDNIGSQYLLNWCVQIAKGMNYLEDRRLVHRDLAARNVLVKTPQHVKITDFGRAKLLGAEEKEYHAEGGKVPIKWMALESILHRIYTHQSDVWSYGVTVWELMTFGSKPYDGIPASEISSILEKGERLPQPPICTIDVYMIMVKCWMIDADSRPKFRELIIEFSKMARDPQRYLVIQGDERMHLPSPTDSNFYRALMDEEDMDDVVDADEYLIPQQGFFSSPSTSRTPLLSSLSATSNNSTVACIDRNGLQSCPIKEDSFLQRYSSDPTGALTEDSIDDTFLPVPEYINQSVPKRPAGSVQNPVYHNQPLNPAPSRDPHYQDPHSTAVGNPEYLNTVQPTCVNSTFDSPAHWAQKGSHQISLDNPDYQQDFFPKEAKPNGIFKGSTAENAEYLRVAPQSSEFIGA
In words: EGFR degradation HTRF assay, H1975-clone #36 cells. The note with it: H1975 #36, 16h treatment; for Dmax: NCI-H1975, maximum percentage of degradation. In short, it runs like this: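 Eight-point, 5-fold series starting at 10 uM (0.2% DMSO) applied for 16 h, 37 °C, to a WT-EGFR-knockout H1975 clone carrying only L858R/T790M. Lysates read by HTRF overnight. Degradation percentage relative to DMSO control fitted for DC50, with Dmax as maximum degradation.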

Another assay addresses T4, EGFR (HCC827 cells) (Homo sapiens, UniProt P00533, DEL746-750).
T4 construct: endogenous in cells; host or cells: HCC827
In words: EGFR degradation HTRF assay, HCC827 cells. The note with it: HCC827, 16h treatment; for Dmax: maximum percentage of degradation. In short, it runs like this: as §1

T4 sequence (P00533 with tags, fused parts or gaps DEL746-750): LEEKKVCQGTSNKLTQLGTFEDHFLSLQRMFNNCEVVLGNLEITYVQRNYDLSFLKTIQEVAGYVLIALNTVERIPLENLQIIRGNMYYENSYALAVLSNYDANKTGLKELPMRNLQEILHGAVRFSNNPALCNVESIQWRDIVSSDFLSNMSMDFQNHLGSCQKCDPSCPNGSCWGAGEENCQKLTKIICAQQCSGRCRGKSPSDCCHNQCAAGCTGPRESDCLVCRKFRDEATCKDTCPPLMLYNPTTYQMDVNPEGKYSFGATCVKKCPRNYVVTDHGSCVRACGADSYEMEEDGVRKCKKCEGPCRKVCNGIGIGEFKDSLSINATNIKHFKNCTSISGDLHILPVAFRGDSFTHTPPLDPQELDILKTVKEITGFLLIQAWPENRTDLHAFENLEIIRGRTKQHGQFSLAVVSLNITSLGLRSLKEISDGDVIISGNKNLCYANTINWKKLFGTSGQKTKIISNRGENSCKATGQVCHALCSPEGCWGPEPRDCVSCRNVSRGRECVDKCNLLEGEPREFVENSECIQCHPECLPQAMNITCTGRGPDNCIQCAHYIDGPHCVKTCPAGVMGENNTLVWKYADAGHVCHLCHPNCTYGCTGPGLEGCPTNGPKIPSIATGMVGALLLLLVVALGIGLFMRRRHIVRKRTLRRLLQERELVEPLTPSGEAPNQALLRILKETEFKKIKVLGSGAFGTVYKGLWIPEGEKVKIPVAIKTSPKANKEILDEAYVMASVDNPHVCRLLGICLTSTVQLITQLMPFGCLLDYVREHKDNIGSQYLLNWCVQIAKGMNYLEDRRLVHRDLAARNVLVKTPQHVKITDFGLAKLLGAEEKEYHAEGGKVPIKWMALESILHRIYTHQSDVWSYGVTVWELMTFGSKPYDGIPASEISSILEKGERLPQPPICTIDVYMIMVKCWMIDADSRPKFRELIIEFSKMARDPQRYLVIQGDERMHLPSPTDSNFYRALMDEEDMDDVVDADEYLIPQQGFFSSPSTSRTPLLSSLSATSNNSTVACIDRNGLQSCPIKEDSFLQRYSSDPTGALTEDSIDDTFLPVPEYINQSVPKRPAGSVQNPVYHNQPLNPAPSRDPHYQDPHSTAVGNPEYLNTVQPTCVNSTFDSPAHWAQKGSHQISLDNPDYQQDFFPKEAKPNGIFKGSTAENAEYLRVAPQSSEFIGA
T1 sequence (P00533 25-1210): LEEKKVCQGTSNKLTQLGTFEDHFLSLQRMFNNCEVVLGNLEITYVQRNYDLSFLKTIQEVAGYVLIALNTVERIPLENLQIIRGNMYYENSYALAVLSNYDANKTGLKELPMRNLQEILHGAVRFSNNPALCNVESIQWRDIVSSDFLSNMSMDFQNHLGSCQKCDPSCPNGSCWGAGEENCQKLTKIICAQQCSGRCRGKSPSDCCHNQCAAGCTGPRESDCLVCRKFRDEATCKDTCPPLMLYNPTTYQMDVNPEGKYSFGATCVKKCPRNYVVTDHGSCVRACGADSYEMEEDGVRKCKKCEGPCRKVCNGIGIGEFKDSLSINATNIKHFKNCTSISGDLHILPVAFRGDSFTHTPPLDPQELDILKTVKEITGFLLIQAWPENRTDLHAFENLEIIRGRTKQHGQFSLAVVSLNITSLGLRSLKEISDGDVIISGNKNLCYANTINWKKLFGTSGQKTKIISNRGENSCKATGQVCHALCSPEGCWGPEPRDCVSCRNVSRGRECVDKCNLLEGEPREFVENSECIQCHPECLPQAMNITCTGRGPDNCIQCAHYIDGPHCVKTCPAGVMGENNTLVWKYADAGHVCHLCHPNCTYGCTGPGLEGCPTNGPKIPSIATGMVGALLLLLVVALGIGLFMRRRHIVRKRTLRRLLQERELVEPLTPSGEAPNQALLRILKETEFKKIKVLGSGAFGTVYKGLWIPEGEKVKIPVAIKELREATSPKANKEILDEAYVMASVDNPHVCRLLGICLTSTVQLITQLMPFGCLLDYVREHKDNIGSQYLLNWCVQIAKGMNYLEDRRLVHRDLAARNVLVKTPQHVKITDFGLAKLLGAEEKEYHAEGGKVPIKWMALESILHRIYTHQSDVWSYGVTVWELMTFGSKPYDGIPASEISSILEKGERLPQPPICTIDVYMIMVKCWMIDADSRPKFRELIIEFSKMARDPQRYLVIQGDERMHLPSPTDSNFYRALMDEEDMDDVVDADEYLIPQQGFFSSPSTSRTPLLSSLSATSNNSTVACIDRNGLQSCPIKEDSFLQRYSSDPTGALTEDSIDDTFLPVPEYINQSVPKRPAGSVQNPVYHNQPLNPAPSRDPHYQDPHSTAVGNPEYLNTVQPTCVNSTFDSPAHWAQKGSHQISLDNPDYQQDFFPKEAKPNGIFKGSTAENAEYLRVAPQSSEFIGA

As for `CCc1cc(Nc2ncc(Br)c(Nc3ccc4nccnc4c3P(C)(C)=O)n2)c(OC)cc1N1CCC(N2CCN(CCc3ccc(NC4CCC(=O)NC4=O)cc3)CC2)CC1` (stereo not shown) [Example 48, 3-((4-(2-(4-(1-(4-((5-bromo-4-((5-(dimethylphosphoryl)quinoxalin-6-yl)amino)pyrimidin-2-yl)amino)-2-ethyl-5-methoxyphenyl)piperidin-4-yl)piperazin-1-yl)ethyl)phenyl)amino)piperidine-2,6-dione], the 50% degradation concentration (DC50) at EGFR WT (BaF3 WT cells) worked out at 2.92 µM; in assay [1], 0.0076 µM; in assay [2], 0.0243 µM; in assay [3], 0.00923 µM; on EGFR (HCC827 cells) it was 0.00442 µM. Moreover, the Dmax on EGFR WT (BaF3 WT cells) was found to be 52.6%; in assay [2] it was 90.4%; in assay [3], 64.5%; on EGFR (HCC827 cells), 76.6%. In addition, the “DTC Dmax (%)” value in assay [1] came to 92.6%.

Take `CCc1cc(Nc2ncc(Br)c(Nc3ccc4nccnc4c3P(C)(C)=O)n2)c(OC)cc1N1CCC(N2CCN(CCCC3CN(c4ccc5c(c4)C(=O)N(C4CCC(=O)NC4=O)C5=O)C3)CC2)CC1` (stereo not shown) [Example 56, 5-(3-(3-(4-(1-(4-((5-bromo-4-((5-(dimethylphosphoryl)quinoxalin-6-yl)amino)pyrimidin-2-yl)amino)-2-ethyl-5-methoxyphenyl)piperidin-4-yl)piperazin-1-yl)propyl)azetidin-1-yl)-2-(2,6-dioxopiperidin-3-yl)isoindoline-1,3-dione]: the 50% degradation concentration (DC50) was over 10 µM at EGFR WT (BaF3 WT cells); 0.00952 µM in assay [1]; 0.0314 µM in assay [2]; 0.0065 µM in assay [3]; 0.00263 µM on EGFR (HCC827 cells). Moreover, the Dmax at EGFR WT (BaF3 WT cells) worked out at 16.9%; in assay [2], 79.5%; in assay [3], 88.8%; on EGFR (HCC827 cells), 93.4%. In addition, in assay [1], the “DTC Dmax (%)” value is on record as 82.17%.

Take `CCc1cc(Nc2ncc(Br)c(Nc3ccc4nccnc4c3P(C)(C)=O)n2)c(OC)cc1N1CCC(N2CCN(CCCN3CCN(c4ccc5c(c4)C(=O)N(C4CCC(=O)NC4=O)C5=O)CC3)CC2)CC1` (stereo not shown) [Example 60, 5-(4-(3-(4-(1-(4-((5-bromo-4-((5-(dimethylphosphoryl)quinoxalin-6-yl)amino)pyrimidin-2-yl)amino)-2-ethyl-5-methoxyphenyl)piperidin-4-yl)piperazin-1-yl)propyl)piperazin-1-yl)-2-(2,6-dioxopiperidin-3-yl)isoindoline-1,3-dione]: the half-maximal degradation concentration (DC50) was 8.86 µM on EGFR WT (BaF3 WT cells); 0.0422 µM in assay [1]; 0.089 µM in assay [2]; 0.0165 µM in assay [3]; 0.0048 µM at EGFR (HCC827 cells). Also, the Dmax at EGFR WT (BaF3 WT cells) turned out to be 51.6%; in assay [2], 91.2%; in assay [3], 73.4%; on EGFR (HCC827 cells), 86.8%. Further, in assay [1], the “DTC Dmax (%)” value was 94.93%.

With `CCc1cc(Nc2ncc(Br)c(Nc3ccc4nccnc4c3P(C)(C)=O)n2)c(OC)cc1N1CCC(N2CCN(C(=O)CCN3CCN(c4ccc5c(c4)C(=O)N(C4CCC(=O)NC4=O)C5=O)CC3)CC2)CC1` (stereo not shown) [Example 61, 5-(4-(3-(4-(1-(4-((5-bromo-4-((5-(dimethylphosphoryl)quinoxalin-6-yl)amino)pyrimidin-2-yl)amino)-2-ethyl-5-methoxyphenyl)piperidin-4-yl)piperazin-1-yl)-3-oxopropyl)piperazin-1-yl)-2-(2,6-dioxopiperidin-3-yl)isoindoline-1,3-dione], the half-maximal degradation concentration (DC50) is over 10 µM at EGFR WT (BaF3 WT cells); 0.00605 µM in assay [1]; 0.0201 µM in assay [2]; 0.00934 µM in assay [3]; 0.00284 µM on EGFR (HCC827 cells). In addition, the Dmax on EGFR WT (BaF3 WT cells) stood at 22.2%; in assay [2] it was 90.4%; in assay [3], 77.2%; on EGFR (HCC827 cells), 90%. Also, the “DTC Dmax (%)” value in assay [1] was 96.02%.

As to `CCc1cc(Nc2ncc(Br)c(Nc3ccc4nccnc4c3P(C)(C)=O)n2)c(OC)cc1N1CCC(N2CCN(C(=O)[C@@H]3CCN(c4ccc5c(c4)C(=O)N(C4CCC(=O)NC4=O)C5=O)C3)CC2)CC1` (stereo partly drawn) [Example 65, 5-((R)-3-(4-(1-(4-((5-bromo-4-((5-(dimethylphosphoryl)quinoxalin-6-yl)amino)pyrimidin-2-yl)amino)-2-ethyl-5-methoxyphenyl)piperidin-4-yl)piperazine-1-carbonyl)pyrrolidin-1-yl)-2-(2,6-dioxopiperidin-3-yl)isoindoline-1,3-dione], the DC50 on EGFR WT (BaF3 WT cells) is over 10 µM; in assay [1], 0.00805 µM; in assay [2] it was 0.0142 µM; in assay [3] it was 0.00231 µM; on EGFR (HCC827 cells), 0.00253 µM. The Dmax on EGFR WT (BaF3 WT cells) amounted to 15.4%; in assay [2], 75.5%; in assay [3], 85.6%; on EGFR (HCC827 cells) it was 73.9%. Further, the “DTC Dmax (%)” value in assay [1] stood at 80.45%.

In the case of `COc1cc(N2CCC(N3CCN(C(=O)C4CCN(CC5CCN(c6ccc7c(c6)C(=O)N(C6CCC(=O)NC6=O)C7=O)CC5)CC4)CC3)CC2)ccc1Nc1ncc(Cl)c(Nc2ccccc2P(C)(C)=O)n1` (stereo not shown) [Example 113, 5-(4-((4-(4-(1-(4-((5-chloro-4-((2-(dimethylphosphoryl)phenyl)amino)pyrimidin-2-yl)amino)-3-methoxyphenyl)piperidin-4-yl)piperazine-1-carbonyl)piperidin-1-yl)methyl)piperidin-1-yl)-2-(2,6-dioxopiperidin-3-yl)isoindoline-1,3-dione], the 50% degradation concentration (DC50) is over 10 µM at EGFR WT (BaF3 WT cells); 0.0151 µM in assay [1]; 0.0772 µM in assay [2]; 0.0053 µM in assay [3]; 0.00334 µM on EGFR (HCC827 cells). Also, the greatest degradation seen (Dmax) came to 29.1% on EGFR WT (BaF3 WT cells), 91% in assay [2], 97.3% in assay [3] and 89.2% at EGFR (HCC827 cells). In addition, the “DTC Dmax (%)” value in assay [1] amounted to 99.16%.

Regarding `COc1cc(N2CCC(N3CCN(C(=O)CCN4CCC(c5ccc(C6CCC(=O)NC6=O)cc5)CC4)CC3)CC2)ccc1Nc1ncc(Cl)c(Nc2ccccc2N(C)S(C)(=O)=O)n1` (stereo not shown) [Example 123, N-(2-((5-chloro-2-((4-(4-(4-(3-(4-(4-(2,6-dioxopiperidin-3-yl)phenyl)piperidin-1-yl)propanoyl)piperazin-1-yl)piperidin-1-yl)-2-methoxyphenyl)amino)pyrimidin-4-yl)amino)phenyl)-N-methylmethanesulfonamide], the 50% degradation concentration (DC50) at EGFR WT (BaF3 WT cells) was over 10 µM; in assay [1], 0.273 µM; in assay [2] it was over 10 µM; in assay [3] it was 0.0124 µM; at EGFR (HCC827 cells), 0.0159 µM. Moreover, the Dmax at EGFR WT (BaF3 WT cells) was 21.6%; in assay [2], 21.2%; in assay [3], 79.7%; on EGFR (HCC827 cells) it was 88.8%. Moreover, the “DTC Dmax (%)” value in assay [1] is 83.94%.
